Patent US12304898B2, “Quinolyl-containing compound and pharmaceutical composition, and use thereof” (PrimeGene (Beijing) Co., Ltd., priority 2019, dated 2025)

Experiments:
HDAC6 = HDAC6 (Homo sapiens (Human), UniProt Q9UBN7); assay: HDAC6 fluorescence analysis, inhibition of HDAC6 activity; assay type: biochemical; conditions: HDAC6 0.3 nM solution, substrate 15 μM, fluorescence readout; read-out: IC50, inhibitory effect on HDAC6
Description: HDAC6 fluorescence analysis method was used to detect the inhibitory effect of the compounds on the activity of HDAC6. The specific operation is as follows:
Prepare a 10 mM stock solution of a compound with DMSO. Take 10 μl of stock solution and dilute with 90 μl DMSO to become a 1 mM working solution. […] Add 3 μl of each concentration to 197 μl reaction buffer (20 mM Hepes pH 8.0, 137 mM NaCl, 2.7 mM KCl, 1 mM MgCl2, 0.05% BSA, 0.5 mM TCEP), mix well and add 10 μl to a 384-well plate. In the final reaction system, the concentrations of the compound were 10 μM to 0.51 nM. Duplicate, and add 10 μl 3XHDAC solution (BPS, Cat. 50006, 0.3 nM) to each well, followed by incubating at 23° C. for 20 minutes. Then, add 3× substrate solution (Anaspec, Cat. 61855, 15 μM), centrifuge to mix, and incubate at 23° C. for 90 minutes. Add 30 μl trypsin/SAHA mixture (20 mM Hepes pH 8.0, 100 mM NaCl, 10 mM SAHA, 0.01 mg/ml trypsin), incubate at 23° C. for 60 minutes to terminate the reaction. Finally, read fluorescence data by Envision (390 nm excitation, 460 nm emission). […] Finally, analyze the data by XLfit5 software and calculate the IC50 value of the compound. Vorinostat (SAHA) was a positive reference compound.

VEGFR2 (KDR) = VEGFR2 (KDR) (Homo sapiens (Human), UniProt P35968); assay: VEGFR2 (KDR) mobility shift assay; assay type: biochemical; conditions: VEGFR2 0.5 nM, ATP 95 μM, read-out: IC50, inhibitory effect on kinase VEGFR2
VEGFR2 (KDR), sequence (P35968 790-1356): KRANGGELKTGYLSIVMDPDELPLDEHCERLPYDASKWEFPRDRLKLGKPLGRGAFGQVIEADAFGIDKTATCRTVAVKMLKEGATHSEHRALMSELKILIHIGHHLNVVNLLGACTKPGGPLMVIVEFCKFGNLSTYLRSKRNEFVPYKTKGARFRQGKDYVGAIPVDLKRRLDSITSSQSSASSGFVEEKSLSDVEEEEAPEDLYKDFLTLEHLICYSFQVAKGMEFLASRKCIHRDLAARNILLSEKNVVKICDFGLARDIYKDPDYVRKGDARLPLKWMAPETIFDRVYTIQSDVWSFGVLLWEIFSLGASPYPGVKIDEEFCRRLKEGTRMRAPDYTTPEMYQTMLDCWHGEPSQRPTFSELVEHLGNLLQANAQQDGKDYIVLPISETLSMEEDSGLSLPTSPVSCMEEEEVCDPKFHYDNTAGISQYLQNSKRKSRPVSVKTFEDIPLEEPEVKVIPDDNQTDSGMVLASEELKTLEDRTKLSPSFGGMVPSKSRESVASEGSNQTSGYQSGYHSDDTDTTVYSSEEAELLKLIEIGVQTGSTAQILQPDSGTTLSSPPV
Description: Detect compounds on VEGFR2 (KDR) by mobility shift assay. The initial test concentration of a compound was 1000 nM, 3 times dilution, 10 concentrations, and detection in duplicate. Nintedanib (Selleckchem, Cat. S1010) was used as the positive control compound. The operation method was briefly described as follows: kinase VEGFR2 (Carna, Cat. 08-191) at the final concentration of 0.5 nM and the test compound were mixed in the Optiplate-384F well plate and incubated for 10 minutes at room temperature. Then, ATP at a final concentration of 95 μM and 3 μM Kinase substrate 22 (Gill Biochemical (glbiochem), Cat. 112393) were added. After mixing, react at room temperature for 30 minutes. Add stop detection solution to terminate the reaction and read the conversion rate with Caliper EZ ReaderlI.
Wherein, Conversion %_sample refers to the conversion rate reading of the sample; Conversion %_min: the average value of the negative control wells, which represents the conversion rate readings of the wells without enzyme activity; Conversion %_max: the average value of the positive control wells, represents the conversion rate readings of the wells without compound inhibition.
Fitting the dose-response curve: Take the log of the concentration as the X-axis, and the percentage of inhibition rate as the Y-axis. The dose response curve was fitted by the analysis software GraphPad Prism 5 with log(inhibitor) vs. response—Variable slope to obtain the inhibitory activity (IC50) of each compound.

[1] = Pharmacokinetic experiment in rats after intragastric administration; assay type: in vivo; conditions: rat, po, female SD rats, 10 mg/kg, plasma
Description: The female SD rats were divided into groups, 3 rats in each group, and the example compounds 10, 12, 24, 57, 61, 89, 90, 93, 94, 96 (10 mg/kg) were administered by intragastric administration. Fasting overnight before administration, and the fasting time was from 10 hours before administration to 4 hours after administration. Blood was collected at 0.25, 0.5, 1, 2, 4, 8 and 24 hours after administration. Small animal anesthesia machine was used for isoflurane anesthesia. After that, 0.3 mL of whole blood was collected from the fundus venous plexus and placed in a heparin anticoagulation tube. The sample was centrifuged at 4° C., 4000 rpm, for 5 minutes, and the plasma was transferred to a centrifuge tube, and stored at −80° C. until analysis. The plasma sample was extracted by protein precipitation method, and the extract was processed and analyzed by LC/MS/MS.

HDAC6, sequence (Q9UBN7 whole entry): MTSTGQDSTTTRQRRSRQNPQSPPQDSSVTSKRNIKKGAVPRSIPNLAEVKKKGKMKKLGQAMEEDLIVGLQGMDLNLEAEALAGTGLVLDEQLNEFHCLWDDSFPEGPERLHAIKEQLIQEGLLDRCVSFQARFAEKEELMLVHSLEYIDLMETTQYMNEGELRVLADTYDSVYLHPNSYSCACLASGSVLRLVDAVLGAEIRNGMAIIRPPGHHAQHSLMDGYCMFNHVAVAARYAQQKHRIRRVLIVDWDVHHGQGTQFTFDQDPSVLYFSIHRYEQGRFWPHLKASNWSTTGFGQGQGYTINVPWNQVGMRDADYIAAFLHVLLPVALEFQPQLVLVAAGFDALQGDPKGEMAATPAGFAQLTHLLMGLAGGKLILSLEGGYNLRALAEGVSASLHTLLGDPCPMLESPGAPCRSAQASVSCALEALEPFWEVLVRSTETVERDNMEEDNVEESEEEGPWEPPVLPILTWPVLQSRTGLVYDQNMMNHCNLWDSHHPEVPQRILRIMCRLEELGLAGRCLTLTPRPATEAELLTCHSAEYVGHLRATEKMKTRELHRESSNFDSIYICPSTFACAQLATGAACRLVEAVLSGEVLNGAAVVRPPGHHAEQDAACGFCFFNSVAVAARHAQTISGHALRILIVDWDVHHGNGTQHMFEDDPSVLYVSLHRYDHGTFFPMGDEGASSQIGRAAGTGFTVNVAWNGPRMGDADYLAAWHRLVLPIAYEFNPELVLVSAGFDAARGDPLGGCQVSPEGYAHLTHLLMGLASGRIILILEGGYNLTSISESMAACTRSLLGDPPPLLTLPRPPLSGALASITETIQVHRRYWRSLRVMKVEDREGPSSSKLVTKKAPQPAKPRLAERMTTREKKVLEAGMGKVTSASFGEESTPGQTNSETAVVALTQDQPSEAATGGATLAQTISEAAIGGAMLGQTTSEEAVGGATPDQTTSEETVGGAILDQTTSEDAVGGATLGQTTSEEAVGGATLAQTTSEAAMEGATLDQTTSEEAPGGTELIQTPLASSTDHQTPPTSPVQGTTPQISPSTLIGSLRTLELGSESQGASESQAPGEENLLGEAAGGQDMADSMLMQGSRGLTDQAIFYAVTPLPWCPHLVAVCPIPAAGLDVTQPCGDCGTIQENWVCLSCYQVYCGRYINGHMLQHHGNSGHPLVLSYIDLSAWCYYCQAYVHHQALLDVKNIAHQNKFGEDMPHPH

Row | Compound | IC50 (HDAC6) [µM] | IC50 (VEGFR2 (KDR)) [µM] | AUC(0-inf) [1] [ng·h/mL] | Cmax [1] [ng/mL] | Tmax [1] [h] | half-life [1] [h]
1 | COc1cc2c(Oc3ccc(NC(=O)C4(C(=O)Nc5ccc(F)cc5)CC4)cc3F)ccnc2cc1OC/C=C/CCCCS [Example 25, (E)-N-(3-fluoro-4-((7-((7-mercaptoheptyl-2-en-1-yl)oxy)-6-methoxyquinolin-4-yl)oxy)phenyl)-N-(4-fluorophenyl)cyclopropane-1,1-diformamide] | 0.0348 | 0.079 |  |  |  | 
2 | COc1cc2c(Oc3ccc(NC(=O)C4(C(=O)Nc5ccc(F)cc5)CC4)cc3F)ccnc2cc1OCCNC(=O)NCCSC(C)=O [Example 55] |  | 0.03 |  |  |  | 
3 | COc1cc2c(Oc3ccc(NC(=O)C4(C(=O)Nc5ccc(F)cc5)CC4)cc3F)ccnc2cc1OCCCCCCSC(C)=O [Example 10, S-(6-((4-(2-fluoro-4-(1-((4-fluorophenyl)aminoformyl)cyclopropane-1-carboxamido)phenoxy)-6-methoxyquinolin-7-yl)oxy)hexyl)-acetylthioester] |  |  | 468 | 377 | 0.833 | 1.24
4 | COc1cc2c(Oc3ccc(NC(=O)C4(C(=O)Nc5ccc(F)cc5)CC4)cc3F)ccnc2cc1OC/C=C/CCCS [Example 27, (E)-N-(3-fluoro-4-((7-((6-mercaptohexyl-2-en-1-yl)oxy)-6-methoxyquinolin-4-yl)oxy)phenyl)-N-(4-fluorophenyl)cyclopropane-1,1-dimethylamid] |  | 0.033 |  |  |  | 
5 | CC(=O)SCCCCCCOc1cc2nccc(Oc3ccc(NC(=O)NC4CC4)c(Cl)c3)c2cc1C(N)=O [Example 86, S-(7-((6-carbamoyl-4-(3-chloro-4-(3-cyclopropylurea)phenoxy)quinolin-7-yl)oxy)hexyl)thioacetate] |  | 0.0026 |  |  |  | 
6 | CCCCCCCC(=O)SCC(=O)NCCCCCOc1cc2nccc(Oc3ccc(NC(=O)C4(C(=O)Nc5ccc(F)cc5)CC4)cc3F)c2cc1OC [Example 90] |  |  | 689 | 852 | 0.333 | 4.25
7 | COc1cc2nccc(Oc3ccc(NC(=O)C4(C(=O)Nc5ccc(F)cc5)CC4)cc3)c2cc1OC [Cabozantinib, reference compound] | > 10 |  |  |  |  | 
8 | COc1cc2c(Oc3ccc(NC(=O)C4(C(=O)Nc5ccc(F)cc5)CC4)cc3F)ccnc2cc1OCCCCCCCS [Example 13, N-(3-fluoro-4-((7-(7-mercaptoheptyloxy)-6-methoxyquinolin-4-yl)oxy)phenyl)-N-(4-fluorophenyl) cyclopropane-1,1-diformamide] | 0.018 |  |  |  |  | 
9 | COc1cc2c(Oc3ccc(NC(=O)C4(C(=O)Nc5ccc(F)cc5)CC4)cc3F)ccnc2cc1OCCCSc1nnc(S)s1 [Example 54, N-(3-fluoro-4-((7-(3-((5-thio-1,3,4-trithiazol-2-yl)sulfanyl)propoxy)-6-methoxyquinolin-4-yl)oxy)phenyl)-N-(4-fluorophenyl)cyclopropane-1,1-diformamide] |  | 0.054 |  |  |  | 
10 | COc1cc2c(Oc3ccc(NC(=O)C4(C(=O)Nc5ccc(F)cc5)CC4)cc3F)ccnc2cc1OCCCCCNC(=O)CSC(C)=O [Example 57, S-(2-((5-((4-(2-fluoro-4-(1-((4-fluorophenyl)carbamoyl)cyclopropane-1-carboxamido)phenoxy)-6-methoxyquinolin-7-yl)oxy)pentyl)amino)-2-oxo-ethyl)thioacetate] |  |  | 2790 | 1590 | 0.33 | 6.42
11 | COc1cc2c(Oc3ccc(NC(=O)C4(C(=O)Nc5ccc(F)cc5)CC4)cc3F)ccnc2cc1OCCCCCNC(=O)CSSC [Example 96, N-(3-fluoro-4-((6-methoxy-7-((5-(2-(methyldisulfanyl)acetylamino)pentyl)oxy)quinolin-4-yl)oxy)phenyl)-N-(4-fluorophenyl)cyclopropyl-1,1-diformamide] |  |  | 1040 | 724 | 0.417 | 6.92
12 | COc1cc2c(Oc3ccc(NC(=O)C4(C(=O)Nc5ccc(F)cc5)CC4)cc3F)ccnc2cc1OCCCCNC(=O)CSC(C)=O [Example 61] |  |  | 175 | 121 | 0.5 | 1.84
13 | COc1cc2c(Oc3ccc(NC(=O)C4(C(=O)Nc5ccc(F)cc5)CC4)cc3)ccnc2cc1OCCCCCNC(=O)CSC(C)=O [Example 65] |  | 0.013 |  |  |  | 
14 | COc1cc2c(Oc3ccc(NC(=O)C4(C(=O)Nc5ccc(F)cc5)CC4)cc3F)ccnc2cc1OCCCCCNC(=O)CSC(=O)[C@@H](Cc1cn(C)c2ccccc12)NC(C)=O [Example 94, S-(2-((5-((4-(2-Fluoro-4-(1-((4-fluorophenyl)carbamoyl)cyclopropane-1-carboxamido)phenoxy)-6-methoxyquinolin-7-yl)oxy)pentyl)amino)-2-oxo-ethyl)-(R)-2-acetylamino-3-(1-methyl-1H-indol-3-yl)thiopropionate] |  |  | 499 | 289 | 0.5 | 6.14
15 | COc1cc2c(Oc3ccc(NC(=O)C4(C(=O)Nc5ccc(F)cc5)CC4)cc3F)ccnc2cc1OCCCCCNC(=O)CSC(=O)[C@H](N)Cc1cn(C)c2ccccc12 [Example 93, S-(2-((5-((4-(2-fluoro-4-(1-((4-fluorophenyl)carbamoyl)cyclopropane-1-carboxamido)phenoxy)-6-methoxyquinolin-7-yl)oxy)pentyl)amino)-2-oxo-ethyl)-(R)-2-amino-3-(1-methyl-1H-indol-3-yl)thiopropionate benzenesulfonate] |  |  | 790 | 429 | 0.667 | 5.49
16 | COc1cc2c(Oc3ccc(NC(=O)C4(C(=O)Nc5ccc(F)cc5)CC4)cc3F)ccnc2cc1OCCCCCNC(=O)CSC(=O)C(C)(C)C [Example 89, S-(2-((5-((4-(2-fluoro-4-(1-((4-fluorophenyl)carbamoyl)cyclopropane-1-carboxamido)phenoxy)-6-methoxyquinolin-7-yl)oxo)phenyl)amino)-2-oxo-ethyl)2,2-dimethylthiopropionate] |  |  | 1650 | 1000 | 0.833 | 5.94
17 | COc1cc2c(Oc3ccc(NC(=O)C4(C(=O)Nc5ccc(F)cc5)CC4)cc3F)ccnc2cc1OCCCCS [Example 7, N-(3-fluoro-4-((7-(4-mercaptobutoxy)-6-methoxyquinolin-4-yl)oxy)phenyl)-N-(4-fluorophenyl) cyclopropane-1,1-diformamide] |  | 0.057 |  |  |  | 
18 | COc1cc2c(Oc3ccc(NC(=O)C4(C(=O)Nc5ccc(F)cc5)CC4)cc3F)ccnc2cc1OC/C=C/CCCCSC(C)=O [Example 24, (E)-S-(7-((4-(2-fluoro-4-(1-((4-fluorophenyl)aminoformyl)cyclopropane-1-carbamoyl)phenoxy)-6-methoxyquinolin-7-yl)oxy)heptyl-5-en-1-yl)acetylthio ester] |  |  | 1070 | 430 | 1.33 | 6.69
19 | COc1cc2c(Oc3ccc(NC(=O)C4(C(=O)Nc5ccc(F)cc5)CC4)cc3F)ccnc2cc1OCCCCSC(C)=O [Example 6, S-(4-((4-(2-Fluoro-4-(1-((4-fluorophenyl)aminoformyl)cyclopropane-1-carboxamido)phenoxy)-6-methoxyquinolin-7-yl)oxy)butyl)-acetylthioester] |  | 0.079 |  |  |  | 
20 | COc1cc2c(Oc3ccc(NC(=O)C4(C(=O)Nc5ccc(F)cc5)CC4)cc3F)ccnc2cc1OCCCCCCCSC(C)=O [Example 12, S-(7-((4-(2-fluoro-4-(1-((4-fluorophenyl)aminoformyl)cyclopropane-1-carboxamido)phenoxy)-6-methoxyquinolin-7-yl)oxy)heptyl)-acetylthioester] | 0.0678 |  | 1870 | 946 | 1 | 3
